Reference: PubChem BioAssay (NCI)
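Step 1: Grow cells in 96-well plates. Step 2: Expose to compound for 48 hours at 5 concentrations. Step 3: Interpolate endpoints linearly; if unreached, use highest concentration. TGI: concentration producing complete growth inhibition.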

How the values were obtained:
Test in all cases: growth of human tumour cells (NCI), 48 h
SNB-19 CNS = system: SNB-19 CNS
ACHN renal = system: ACHN renal
SK-OV-3 ovarian = system: SK-OV-3 ovarian
HT29 colon = system: HT29 colon
UACC-62 melanoma = system: UACC-62 melanoma
OVCAR-8 ovarian = system: OVCAR-8 ovarian
NCI-H23 lung = system: NCI-H23 lung
HOP-62 NSCLC = system: HOP-62 NSCLC
SF-539 CNS = system: SF-539 CNS
SF-268 CNS = system: SF-268 CNS
RXF 393 renal = system: RXF 393 renal
K-562 leukemia = system: K-562 leukemia
MCF7 breast = system: MCF7 breast
HOP-92 NSCLC = system: HOP-92 NSCLC
HS 578T breast = system: HS 578T breast
TK-10 renal = system: TK-10 renal

Row | Structure (SMILES) | TGI (SNB-19 CNS) [µM] | TGI (ACHN renal) [µM] | TGI (SK-OV-3 ovarian) [µM] | TGI (HT29 colon) [µM] | TGI (UACC-62 melanoma) [µM] | TGI (OVCAR-8 ovarian) [µM] | TGI (NCI-H23 lung) [µM] | TGI (HOP-62 NSCLC) [µM] | TGI (SF-539 CNS) [µM] | TGI (SF-268 CNS) [µM] | TGI (RXF 393 renal) [µM] | TGI (K-562 leukemia) [µM] | TGI (MCF7 breast) [µM] | TGI (HOP-92 NSCLC) [µM] | TGI (HS 578T breast) [µM] | TGI (TK-10 renal) [µM]
1 | COc1ccc(C2ON(c3ccccn3)CC=C2C)cc1 (configuration not stated) | > 100 | > 100 | > 100 | > 100 | > 100 | > 100 | > 100 | > 100 | > 100 | > 100 | > 100 | > 100 |  |  |  | 
2 | CCOC(=O)c1cccc([N+](=O)[O-])c1N | > 100 | > 100 | > 100 | > 100 | > 100 | > 100 | > 100 | > 100 | > 100 |  |  | > 100 | > 100 | > 100 | > 100 | > 100
3 | CC12CC[C@H](O)C(C)(C)[C@H]1CC[C@](C)(O)C2COc1ccc2ccc(=O)oc2c1 (some centres not stated) | > 100 | > 100 | > 100 | > 100 | > 100 | > 100 | > 100 | > 100 | > 100 | > 100 | > 100 | > 100 |  | > 100 |  | > 100
4 | COc1ccc(C2=NN(c3ccccc3)C(c3cc4cc(Br)ccc4nc3Cl)C2)cc1 (configuration not stated) | > 25 |  | > 25 | > 25 |  | > 25 | > 25 | > 25 | > 25 | > 25 | > 25 | > 25 |  | > 25 | > 25 | 
5 | Cc1ccc(CS(=O)(=O)C/N=c2\sc3ccccc3nc2/C=C(\O)c2ccc(Cl)cc2)cc1 | > 10 | > 10 | > 10 | > 10 | > 10 | > 10 | > 10 | > 10 | > 10 | > 10 |  | > 10 | > 10 | > 10 | > 10 | > 10
6 | COC(=O)N/N=C/c1oc(-c2ccccc2)c(-c2ccccc2)c1[N+](=O)[O-] | > 100 | > 100 | > 100 | > 100 | > 100 | > 100 | > 100 | > 100 | > 100 | > 100 | > 100 | > 100 |  | > 100 |  | > 100
7 | COc1ccccc1S(=O)Nc1ccccc1 (configuration not stated) | > 100 | > 100 |  | > 100 | > 100 | > 100 | > 100 | > 100 | > 100 | > 100 |  | > 100 | > 100 |  | > 100 | > 100
8 | OCC1OC(n2nc(-c3ccccc3)nc2-c2cnccn2)C(O)C1O (configuration not stated) | > 100 |  | > 100 | > 100 | > 100 | > 100 | > 100 | > 100 | > 100 | > 100 |  | > 100 | > 100 | > 100 |  | > 100
